Data from PubChem BioAssay AID248 (DTP/NCI, 2004).
Where “and” joins values, the source holds several entries; their conditions need not be identical. Equal values may be shown once. Inconclusive results and toxic doses are left out. Rule as the data show it: active = T/C of 150% or more; inactive = T/C below 125%. Square brackets hold non-standard residues; d marks the D form. Peptide text beside a SMILES is read from it. * marks the point of attachment. Cbz = O=C(OCc1ccccc1)*; Abu = CC[CH](N)C(=O)O; OBn = c1ccc(CO*)cc1

Test system: L1210 leukemia ip in BDF1 mice, survival T/C
Test: NCI In Vivo Anticancer Drug Screen. Data for tumor model L1210 Leukemia (intraperitoneal) in B6D2F1 (BDF1) mice
Conditions: endpoint: mean survival time, higher = longer survival
Method in brief: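 Ratio derived from survival: compound-dosed mice over vehicle-dosed mice, all bearing a transplantable tumor.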

[1] = dose: 100.0 mg/kg/injection, schedule: Q04DX003 (ip), vehicle: saline with Tween-80
[2] = dose: 200.0 mg/kg/injection, schedule: Q04DX003 (ip), vehicle: saline with Tween-80
[3] = dose: 400.0 mg/kg/injection, schedule: Q04DX003 (ip), vehicle: saline with Tween-80

Measured: T/C

CCC(NC(=O)OCc1ccccc1)C(=O)NC(C(=O)OCc1ccccc1)C(C)CC (stereo not drawn) (Cbz-[Abu]-Ile-OBn; configuration not given here)
inactive: [1] 92 % of control | [2] 92 % of control | [3] 93 % of control

COc1cccc2c1C(=O)c1c(O)c3c(c(O)c1C2=O)C[C@@](O)(C(=O)CO)C[C@@H]3OC1CC(NC(=S)Nc2ccc(F)cc2)C(O)C(C)O1 (stereo partly drawn)
inactive: dose: 100.0 mg/kg/injection, schedule: Q04DX003 (ip), vehicle: saline 111 % of control | dose: 200.0 mg/kg/injection, schedule: Q04DX003 (ip), vehicle: saline 106 % of control | dose: 400.0 mg/kg/injection, schedule: Q04DX003 (ip), vehicle: saline 104 % of control

CC(=C/C(C)(C)C)/C(C)=C/C(C)(C)C
inactive: dose: 100.0 mg/kg/injection, schedule: Q01DX009 (ip), vehicle: saline 88 % of control

CC1(C)OC2C(CO)OC(n3cnc4c(=O)[nH]cnc43)C2O1 (stereo not drawn)
inactive: dose: 75.0 mg/kg/injection, schedule: Q01DX001 (ip), vehicle: saline 102 % of control | dose: 150.0 mg/kg/injection, schedule: Q01DX001 (ip), vehicle: saline 92 % of control

CCOc1cc(/C=N\Nc2nncn2N)ccc1N(CCCl)CCCl
inactive: dose: 0.5 mg/kg/injection, schedule: Q01DX015 (ip), vehicle: carboxymethylcellulose (CMC) 109 % of control | dose: 1.0 mg/kg/injection, schedule: Q01DX015 (ip), vehicle: carboxymethylcellulose (CMC) 111 % of control | dose: 2.0 mg/kg/injection, schedule: Q01DX015 (ip), vehicle: carboxymethylcellulose (CMC) 116 % of control | dose: 4.0 mg/kg/injection, schedule: Q01DX015 (ip), vehicle: carboxymethylcellulose (CMC) 101 % of control and 109 % of control | dose: 5.0 mg/kg/injection, schedule: Q01DX001 (ip), vehicle: carboxymethylcellulose (CMC) 98 % of control and 117 % of control | dose: 7.0 mg/kg/injection, schedule: Q01DX015 (ip), vehicle: carboxymethylcellulose (CMC) 107 % of control and 90 % of control | dose: 10.0 mg/kg/injection, schedule: Q01DX001 (ip), vehicle: carboxymethylcellulose (CMC) 101 % of control | dose: 12.0 mg/kg/injection, schedule: Q01DX015 (ip), vehicle: carboxymethylcellulose (CMC) 98 % of control and 117 % of control | dose: 20.0 mg/kg/injection, schedule: Q01DX001 (ip), vehicle: carboxymethylcellulose (CMC) 95 % of control and 106 % of control | dose: 20.0 mg/kg/injection, schedule: Q01DX015 (ip), vehicle: carboxymethylcellulose (CMC) 120 % of control | dose: 40.0 mg/kg/injection, schedule: Q01DX001 (ip), vehicle: carboxymethylcellulose (CMC) 106 % of control

N#CC1=C(N)CCP(c2ccccc2)C1 (stereo not drawn)
inactive: [1] 94 % of control | [2] 97 % of control | [3] 100 % of control
